# Measured values published in patent US5252571A, “1,4-benzothiazine-2-acetic acid derivatives” (Sapporo Breweries Limited, priority 1990, dated 1993).
# What was measured:
# [1] = biological target: T1, aldose reductase (Sus scrofa, UniProt P80276); assay: Aldose reductase inhibitory activity (porcine crystalline lens enzyme); type: biochemical; settings: d1-glyceraldehyde 3 mM, pH 6.2, 25° C., 2 minutes
# T1 construct: porcine crystalline lens stored at -80° C. was homogenized in distilled water; from tissue; host or cells: porcine crystalline lens
# Method: Aldose reductase enzyme standard was prepared from porcine crystalline lens by the method of Hayman et al. (cf., S. Hayman et al., Journal of Biological Chemistry, 240, 877-882, 1965). That is, porcine crystalline lens stored at -80° C. was homogenized in distilled water followed by centrifugation at 10,000 XG for 15 minutes. The supernatant was dissolved to make 40% ammonium sulfate solution. The supernatant centrifuged at 10,000 XG for further 10 minutes was dialyzed to 0.05 M sodium chloride solution overnight. The thus obtained dialysate was used as the enzyme standard.
# The activity of aldose reductase was determined by the method of Hayman et al. supra. That is, 25 μl of the enzyme solution described above and […] of a drug solution in 1% DMSO having various concentrations were added to 200 μl of 40 mM phosphate buffer (pH 6.2) prepared to contain […] lithium sulfate and 0.1 MM NADPH (reduced nicotinamide adenine dinucleotide phosphate) in final concentrations and Containing 3 mM d1-glyceraldehyde as substrate, respectively. Thereafter, the mixture was reacted at 25° C. for 2 minutes and change in absorbance at 340 nm was determined using COBAS FARA II (Roche Co.).
# [2] = test system: ICR strain mice; assay: Safety test, single oral administration in mice with 14 days observation; type: in vivo; settings: 300 mg/kg oral, male ICR mice
# Method: Next, safety of the compounds of the present invention was verified by the following test.
# After normal ICR strain mice (male, 7 weeks age, 5 mice being into one group) was fasted for 18 hours, each compound (300 mg/kg) of Examples 1311, 132, 134, 156, 173, 179, 183 and 188 was orally administered in the form of 0.5% carboxymethylcellulose suspension. In the control group, 0.5% carboxymethylcellulose solution alone was orally administered. […] During the observation, mice were free access to feed and water.
# [3] = test system: tissue sorbitol in streptozotocin-induced diabetic rats; assay: Inhibitory activity of accumulation of tissue sorbitol in streptozotocin-induced diabetic rats; type: in vivo, Sprague-Dawley rats; settings: 30 mg/kg oral 4, 8 and 24 hours after streptozotocin, control = 100%, Tukey's test *p < 0.05, **p < 0.01; for Accumulation of Tissue Sorbitol (%), Nerve: sciatic nerve
# Method: 4) Inhibitory activity of accumulation of tissue sorbitol in streptozatocini-induced diabetic rats.
# Sprague-Dawley rats (male,6 weeks of age, one group composed of 5 to 6 rats), fasted overnight, were made diabetic by single intravenous injection of 60 mg/kg body weight of streptozotocin (SIGMA Co. ) , which had been freshly dissolved in normal saline solution.
# The compound was orally administered in the form of 0.5% carboxymethylcellulose suspension in a dose of 30 mg/kg 4, 8 and 24 hours after the injection of streptozotocin. During the test, rats were free access to feed and water. Three hours after the final administration, the sorbitol contens in tissues (red blood cell, sciatic nerve, lens) Were determined by the enzyme method of Bergmeyer et al. [cf., H. Y. Bergmeyer et al., Methods of Enzymatic Analysis, 3, 1323-1330, 1974], using SDH (sorbitol dehydrogenase) and AND (β-nicotinamide adenine dinucleotide). The results are shown by percentage (%) when the value obtained with control group administered with 0.5% carboxymethylcellulose solution as a solvent instead of the compound was made 100%.
structure (smiles),measurement,setting,value
"O=C(O)CC1Sc2ccccc2N(Cc2nc3cc(F)ccc3s2)C1=O (centres unmarked) [Example 131, 2-[4-(5-fluorobenzothiazol-2-yl]methyl-3,4-dihydro-3-oxo-2H-1,4-benzothiazin-2-yl]acetic acid]",IC50,[1],15 nM
same,body weight,[2],progressed as in the control group
same,mice dead,[2],none
"Cc1ccc2c(c1)N(Cc1nc3cc(F)ccc3s1)C(=O)C(CC(=O)O)S2 (centres unmarked) [Example 132, 2-[4-(5-Fluorobenzothiazol-2-yl)methyl-6-methyl-3,4-dihydro-3-oxo-2H -1,4-benzothiazin-2-yl]acetic acid]",body weight,[2],progressed as in the control group
same,mice dead,[2],none
"CCOc1ccc2c(c1)SC(CC(=O)O)C(=O)N2Cc1nc2cc(F)ccc2s1 (centres unmarked) [Example 133, 2-[7-Ethoxy-4-(5-fluorobenzothiazol-2-yl)methyl-3,4-dihydro-3-oxo-2H-1,4-benzothiazin-2-yl]acetic acid]",IC50,[1],15 nM
"Cc1cc(C)c2c(c1)N(Cc1nc3cc(F)ccc3s1)C(=O)C(CC(=O)O)S2 (centres unmarked) [Example 134, 2-[6,8-Dimethyl-4-(5-fluorobenzothiazol-2-yl)methyl-3,4-dihydro-3-oxo-2H-1,4-benzothiazin-2-yl]acetic acid]",body weight,[2],progressed as in the control group
same,mice dead,[2],none
Cc1ccc2c(c1)N(Cc1nc3cc(Cl)ccc3s1)C(=O)C(CC(=O)O)S2 (centres unmarked) [Example 139],IC50,[1],14 nM
"O=C(O)CC1Sc2ccccc2N(Cc2nc3c(Cl)c(Cl)ccc3s2)C1=O (centres unmarked) [Example 154, 2-[4-(4,5-Dichlorobenzothiazol-2-yl)methyl-3,4-dihydro-3-oxo-2H-1,4-benzothiazin-2-yl]acetic acid]","Accumulation of Tissue Sorbitol (%), Lens",[3],59.0%
same,"Accumulation of Tissue Sorbitol (%), Red Blood Cell",[3],3.3%
same,"Accumulation of Tissue Sorbitol (%), Nerve",[3],18.6%
"O=C(O)CC1Sc2ccccc2N(Cc2nc3ccc(F)c(F)c3s2)C1=O (centres unmarked) [Example 155, 2-[4-(6,7-Difluorobenzothiazol-2-yl)methyl-3,4-dihydro-3-oxo-2H-1,4-benzothiazin-2-yl]acetic acid]",IC50,[1],14 nM
same,"Accumulation of Tissue Sorbitol (%), Lens",[3],36.8%
same,"Accumulation of Tissue Sorbitol (%), Red Blood Cell",[3],0.0%
same,"Accumulation of Tissue Sorbitol (%), Nerve",[3],7.0%
"Cc1ccc2c(c1)N(Cc1nc3c(Cl)c(Cl)ccc3s1)C(=O)C(CC(=O)O)S2 (centres unmarked) [Example 156, 2-[4-(4,5-Dichlorobenzothiazol-2-yl)methyl-6-methyl-3,4-dihydro-3-oxo-2H-1,4-benzothiazin-2-yl]acetic acid]",body weight,[2],progressed as in the control group
same,mice dead,[2],none
"O=C(O)CC1Sc2ccccc2N(Cc2nc3c(F)ccc(F)c3s2)C1=O (centres unmarked) [Example 158, 2-[4-(4,7-Difluorobenzothiazol-2-yl)methyl-3,4-dihydro-3-oxo-2H-1,4-benzothiazin-2-yl]acetic acid]","Accumulation of Tissue Sorbitol (%), Lens",[3],58.4%
same,"Accumulation of Tissue Sorbitol (%), Red Blood Cell",[3],39.2%
same,"Accumulation of Tissue Sorbitol (%), Nerve",[3],33.1%
"O=C(O)CC1Sc2ccccc2N(Cc2nc3ccc(Cl)c(Cl)c3s2)C1=O (centres unmarked) [Example 160, 2-[4-(6,7-Dichlorobenzothiazol-2-.yl)methyl-3,4-dihydro-3-oxo-2H-1,4-benzothiazin-2-yl]acetic acid]",IC50,[1],14 nM
"O=C(O)CC1Sc2ccccc2N(Cc2nc3c(Cl)c(Cl)cc(Cl)c3s2)C1=O (centres unmarked) [Example 166, 2-[4-(4,5,7-Trichlorobenzothiazol-2-yl)methyl-3,4-dihydro-3-oxo-2H-1,4-benzothiazin-2-yl]acetic acid]",IC50,[1],9.1 nM
"O=C(O)CC1Sc2ccccc2N(Cc2nc3cc(F)cc(F)c3s2)C1=O (centres unmarked) [Example 173, 2-[4-(5,7-Difluorobenzothiazol-2-yl)methyl-3,4-dihydro-3-oxo-2H-1,4-benzothiazin-2-yl]acetic acid]",IC50,[1],14 nM
same,body weight,[2],progressed as in the control group
same,mice dead,[2],none
"Cc1ccc2c(c1)N(Cc1nc3c(F)cccc3s1)C(=O)C(CC(=O)O)S2 (centres unmarked) [Example 176, 2-[4-(4-Fluorobenzothiazol-2-yl)methyl-6-methyl-3,4-dihydro-3-oxo-2H-1,4-benzothiazin-2-yl]acetic acid]",IC50,[1],14 nM
"O=C(O)CC1Sc2cccc(F)c2N(Cc2nc3cc(F)ccc3s2)C1=O (centres unmarked) [Example 177, 2-[5-Fluoro-4-(5-fluorobenzothiazol-2-yl)methyl-3,4-dihydro-3-oxo-2H-1,4-benzothiazin-2-yl]acetic acid]",IC50,[1],16 nM
"Cc1ccc2c(c1)N(Cc1nc3cc(F)cc(F)c3s1)C(=O)C(CC(=O)O)S2 (centres unmarked) [Example 179, 2-[4-(5,7-Difluorobenzothiazol-2-yl)methyl-6-methyl-3,4-dihydro-3-oxo-2H-1,4-benzothiazin-2-yl]acetic acid]",body weight,[2],progressed as in the control group
same,mice dead,[2],none
"O=C(O)CC1Sc2cc(F)ccc2N(Cc2nc3cc(F)cc(F)c3s2)C1=O (centres unmarked) [Example 182, 2-[4-(5,7-Difluorobenzothiazol-2-yl)methyl-7-fluoro-3,4-dihydro-3-oxo-2H-1,4-benzothiazin-2-yl]acetic acid]",IC50,[1],12 nM
"O=C(O)CC1Sc2cc(OC(F)(F)F)ccc2N(Cc2nc3cc(F)cc(F)c3s2)C1=O (centres unmarked) [Example 187, 2-[4-(5,7-Difluorobenzothiazol-2-yl)methyl-7-trifluoromethoxy-3,4-dihydro-3-oxo-2H-1,4-benzothiazin-2-yl]acetic acid]",IC50,[1],9.8 nM
"Cc1ccc2c(c1)SC(CC(=O)O)C(=O)N2Cc1nc2ccc(F)c(F)c2s1 (centres unmarked) [Example 199, 2-[4-(6,7-Difluorobenzothiazol-2-yl)methyl-7-methyl-3,4-dihydro-3-oxo-2H-1,4-benzothiazin-2-yl]acetic acid]",IC50,[1],7.7 nM
"O=C(O)CC1Sc2cc(Cl)ccc2N(Cc2nc3c(F)c(F)cc(F)c3s2)C1=O (centres unmarked) [Example 202, 2-[4-(4,5,7-Trifluorobenzothiazol-2-yl)methyl-7-chloro-3,4-dihydro-3-oxo-2H-1,4-benzothiazin-2-yl]acetic acid]",IC50,[1],8.7 nM
"COc1ccc2c(c1)N(Cc1nc3c(Cl)c(Cl)ccc3s1)C(=O)C(CC(=O)O)S2 (centres unmarked) [Example 206, 2-[4-(4,5-Dichlorobenzothiazol-2-yl)methyl-6-methoxy-3,4-dihydro-3-oxo-2H-1,4-benzothiazin-2-yl]acetic acid]",IC50,[1],6.8 nM
"O=C(O)CC1Sc2c(F)cccc2N(Cc2nc3c(F)c(F)cc(F)c3s2)C1=O (centres unmarked) [Example 208, 2-[4-(4,5,7-Trifluorobenzothiazol-2-yl)methyl-8-fluoro-3,4-dihydro-3-oxo-2H-1,4-benzothiazin-2-yl]acetic acid]","Accumulation of Tissue Sorbitol (%), Lens",[3],31.5%
same,"Accumulation of Tissue Sorbitol (%), Red Blood Cell",[3],22.9%
same,"Accumulation of Tissue Sorbitol (%), Nerve",[3],0.0%
"O=C(O)CC1Sc2ccc(F)cc2N(Cc2nc3c(F)c(F)ccc3s2)C1=O (centres unmarked) [Example 209, 2-[4-(4,5-Difluorobenzothiazol-2-yl)methyl-6-fluoro-3,4-dihydro-3-oxo-2H-1,4-benzothiazin-2-yl]acetic acid]","Accumulation of Tissue Sorbitol (%), Lens",[3],25.2%
same,"Accumulation of Tissue Sorbitol (%), Red Blood Cell",[3],24.7%
same,"Accumulation of Tissue Sorbitol (%), Nerve",[3],3.1%
